Reference: patent publication US20040054130A1, “Insulin potentiating peptides” (priority 2000, published 2004)
Ends that are not written are not given here.

Legend:
[1] = tested on: normal male Wistar rats; experiment: Intravenous insulin tolerance test (IVITT); type: in vivo, rat; conditions: 5 μmol/kg i.v.; for Reduction in Blood Glucose: 0.1 U insulin/kg
Method: IVITTs (0.1 U insulin/kg body weight) were performed on overnight-fasted Wistar male rats as previously described (Lim et al, 1992). Blood samples were taken for glucose estimation at 15, 30, 45, 60 min after the commencement of the tests. Six animals in each group were used.
IVITTs were performed on normal male Wistar rats after a single intravenous (i.v.) injection of the hGH peptide analogues at a dose of 5 μmol/kg body weight. The insulin-potentiating effects of peptides 6, 7, 8 and 10 on decreasing blood glucose levels of treated animals became significant since 30 min after the commencement of the test. Bioactivity was retained when the Arg^8 or Phe^10 residue of Asu^11-hGH(6-13) peptide was substituted with Lys or Tyr respectively (1.92±0.17 or 1.62±0.18 vs. 1.65±0.12 mmol/L at 45 min), as shown in Table 3. However, no insulin-potentiating effect was observed when either Arg^8 or Phe^10 was substituted by Gly (0.92±0.08 or 1.08±0.08 mmol/L respectively vs. 1.00±0.10 mmol/L of control at 45 min). Asu^11-hGH(8-13) also elicited this insulin-potentiating effect, but with lower potency.

[2] = tested on: insulin-resistant Zucker fatty (fa/fa) rats; conditions: glucose clamp technique; cited from earlier work
[3] = biological target: insulin receptor tyrosine kinase (Homo sapiens, UniProt P06213); conditions: cited from earlier work

Leu-Ser-Arg-Leu-Phe-Asu-Asn-Ala (LSRLFDNA-NH2; not fully specified; printed as Leu-Ser-Arg-Leu-Phe-Asu-Asn-Ala) [Peptide 7]
insulin-potentiating effect on decreasing blood glucose in IVITT (in words) ([1]; from 30 min after commencement): significant
Reduction in Blood Glucose ([1]; 15 min): 1.08 ± 0.09 mmol/L
Reduction in Blood Glucose ([1]; 30 min): 1.38 ± 0.13 mmol/L
Reduction in Blood Glucose ([1]; 45 min): 1.65 ± 0.12 mmol/L
Reduction in Blood Glucose ([1]; 45 min, listed as Asu^11-hGH(6-13)): 1.65 ± 0.12 mmol/L
Reduction in Blood Glucose ([1]; 60 min): 1.77 ± 0.19 mmol/L
glucose tolerance [2]: improve glucose tolerance
effect on insulin receptor tyrosine kinase activity [3]: stimulating
